≈ marks a conversion by molar mass, not a printed value.
Tests used:
KB = test: Cytotoxicity against human KB cells; format: functional; conditions: read-out: ED50 (the source's name)
P388 = test: In vivo cytotoxicity against mouse P388 cells at 2 mg/kg relative to control; format: functional

Compound | EC50 (KB) [µg/mL] | T/C (P388) [%]
CCOC(=O)CC1(O)C=CC(=O)C=C1 | 3.3 (≈ 16.8 µM) | 
COC(=O)CC1(O)C=CC(=O)c2ccccc21 (stereo unspecified) | 20 (≈ 86.1 µM) | 
COC(=O)CC1(O)C=C(OC)C(=O)c2ccccc21 (stereo unspecified) | 25 (≈ 95.3 µM) | 
COC(=O)CC1(O)C=C(C)C(=O)c2ccccc21 (stereo unspecified) | 100 (≈ 406 µM) | 
COC(=O)CC1(O)C=CC(=O)C=C1 [JACARANONE] | 2.1 (≈ 11.5 µM) | 165
